In assay [1] the target is human recombinant 5-HT1A receptor (Homo sapiens (Human), UniProt P08908). As to the kind of experiment: 5-HT1A receptor agonism activity test (inhibition of cAMP production, LANCE cAMP 384 Kit). It counts as cell-based. The following applies: HEK293 cells expressing human recombinant 5-HT1A receptor; test concentration 0.1 nM-10000 nM; read-out: 5-HT1A receptor agonism (EC50, mol/L). The text has this:
Pharmacological Test 1) 5-HT1A Receptor Agonism Activity Test
(Changes in cAMP serve as a functional read-out for many G protein-coupled receptors.)

The target of assay [2] is human recombinant 5-HT2A receptor (Homo sapiens (Human), UniProt P28223). The assay can be described thus: 5-HT2A receptor antagonism activity test (FLIPR Calcium 5 Assay Kit). Particulars: read-out: 5-HT2A receptor antagonism (IC50, mol/L); CHO-K1 cells expressing human recombinant 5-HT2A receptor; α-methyl-5-hydroxytryptamine 300 nM; 0.1 nM-10000 nM.
Assay [3] concerns the target human recombinant D2 receptor (Homo sapiens (Human), UniProt P14416). As to the kind of experiment: D2 receptor antagonism activity test (inhibition of dopamine-induced decrease of cAMP production, LANCE cAMP 384 Kit). Particulars: read-out: D2 receptor antagonism (IC50, mol/L), HEK293 cells expressing human recombinant D2 receptor, 0.1 nM-10000 nM.

For 11 compounds, EC50 and IC50 results are on record in patent US10174011B2, “Heterocyclic compounds, process for preparation of the same and use thereof” (SHANGHAI INSTITUTE OF MATERIA MEDICA, CHINESE ACADEMY OF …, priority 2014, dated 2019).

SMILES strings stand for the structures.

Chain of human recombinant D2 receptor (P14416 whole entry): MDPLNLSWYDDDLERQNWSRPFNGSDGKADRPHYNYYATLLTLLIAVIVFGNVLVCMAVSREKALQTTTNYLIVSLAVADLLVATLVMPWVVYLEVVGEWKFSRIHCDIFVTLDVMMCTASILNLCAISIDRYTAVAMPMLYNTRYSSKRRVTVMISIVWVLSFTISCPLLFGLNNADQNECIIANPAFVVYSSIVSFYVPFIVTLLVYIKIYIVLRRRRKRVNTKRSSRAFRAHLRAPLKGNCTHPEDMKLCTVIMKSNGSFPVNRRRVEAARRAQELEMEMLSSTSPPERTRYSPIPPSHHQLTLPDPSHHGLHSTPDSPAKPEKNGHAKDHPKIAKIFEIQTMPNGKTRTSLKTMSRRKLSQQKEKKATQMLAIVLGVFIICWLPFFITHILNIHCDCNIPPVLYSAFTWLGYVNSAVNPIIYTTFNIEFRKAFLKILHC
Chain of human recombinant 5-HT1A receptor (P08908 whole entry): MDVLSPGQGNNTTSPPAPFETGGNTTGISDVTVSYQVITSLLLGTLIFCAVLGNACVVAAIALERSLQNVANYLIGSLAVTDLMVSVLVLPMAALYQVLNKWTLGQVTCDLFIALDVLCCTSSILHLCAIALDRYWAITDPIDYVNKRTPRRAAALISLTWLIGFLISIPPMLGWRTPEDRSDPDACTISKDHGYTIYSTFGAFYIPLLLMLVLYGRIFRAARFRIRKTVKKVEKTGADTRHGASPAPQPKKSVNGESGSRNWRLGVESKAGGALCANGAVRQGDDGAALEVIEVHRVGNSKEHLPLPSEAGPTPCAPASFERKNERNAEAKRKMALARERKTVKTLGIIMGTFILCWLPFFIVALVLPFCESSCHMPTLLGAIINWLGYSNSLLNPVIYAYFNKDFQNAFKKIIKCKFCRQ
Chain of human recombinant 5-HT2A receptor (P28223 whole entry): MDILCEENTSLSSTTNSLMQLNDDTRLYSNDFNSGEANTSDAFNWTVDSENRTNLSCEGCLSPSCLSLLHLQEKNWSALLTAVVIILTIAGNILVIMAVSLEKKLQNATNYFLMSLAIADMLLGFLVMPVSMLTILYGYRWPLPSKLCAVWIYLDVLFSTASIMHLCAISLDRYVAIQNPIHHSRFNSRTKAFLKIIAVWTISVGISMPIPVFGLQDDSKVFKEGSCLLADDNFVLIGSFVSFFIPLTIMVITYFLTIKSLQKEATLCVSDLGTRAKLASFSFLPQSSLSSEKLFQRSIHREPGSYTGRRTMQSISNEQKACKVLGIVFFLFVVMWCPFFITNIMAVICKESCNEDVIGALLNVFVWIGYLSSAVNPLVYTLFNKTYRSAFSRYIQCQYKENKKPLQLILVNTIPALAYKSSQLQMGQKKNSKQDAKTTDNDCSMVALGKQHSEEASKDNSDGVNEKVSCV

With `Cc1nc2n(c(=O)c1CCN1CCN(c3cc(F)cc4sccc34)CC1)CCCC2` [Compound of example 90, 3-(2-(4-(6-fluorobenzo[b]thiophen-4-yl)piperazin-1-yl)ethyl)-2-methyl-6,7,8,9-tetrahydro-4H-pyrido[1,2-a]pyrimidin-4-one], the EC50 in assay [1] was 27.7 nM. Also, the IC50 in assay [2] turned out to be 13.6 nM; in assay [3] it was 10.4 nM.
Regarding `O=C1COc2ccc(CCN3CCC(c4cccc5sccc45)CC3)cc2N1` [Compound of example 97, 6-(2-(4-(benzo[b]thiophen-4-yl)piperidin-1-yl)ethyl)-2H-benzo[b][1,4]oxazin-3(4H)-one], in assay [1], the EC50 stood at 0.223 nM. Moreover, the IC50 in assay [2] was found to be 173 nM; in assay [3], 6.81 nM.
As for `O=C1CCc2cc(CCN3CCC(c4cccc5sccc45)CC3)ccc2N1` [Compound of example 98, 6-(2-(4-(benzo[b]thiophen-4-yl)piperidin-1-yl)ethyl)-3,4-dihydroquinolin-2(1H)-one], the EC50 in assay [1] was found to be 2.9 nM. The IC50 in assay [2] turned out to be 185 nM; in assay [3], 12.4 nM.
As to `O=C1Cc2cc(CCCCN3CCN(c4cccc5sc(F)cc45)CC3)ccc2N1` [Compound of example 101, 5-(4-(4-(2-fluorobenzo[b]thiophen-4-yl)piperazin-1-yl)butyl)indolin-2-one], the EC50 in assay [1] worked out at 16.8 nM. Further, the IC50 in assay [2] turned out to be 759 nM; in assay [3], 1.84 nM.
Take `O=C1CCc2cc(CCCCN3CCC(c4cccc5sccc45)CC3)ccc2N1` [Compound of example 104, 6-(4-(4-(benzo[b]thiophen-4-yl)piperidin-1-yl)butyl)-3,4-dihydroquinolin-2(1H)-one]: the EC50 in assay [1] is 12.3 nM. The results for the IC50 in assay [2] and in assay [3] were 106 nM and 98.8 nM, respectively.
The matching figures for `COc1ccc2[nH]cc(CCCN3CCN(c4cccc5sccc45)CC3)c2c1` [Compound of example 106, 3-(3-(4-(benzo[b]thiophen-4-yl)piperazin-1-yl)propyl)-5-methoxy-1H-indole]: 10.4 nM, 662 nM and 543 nM.
For the compound `COc1ccc2[nH]cc(CCCCN3CCN(c4cccc5sccc45)CC3)c2c1` [Compound of example 107, 3-(4-(4-(benzo[b]thiophen-4-yl)piperazin-1-yl)butyl)-5-methoxy-1H-indole], the EC50 in assay [1] was 7.95 nM. For the same compound, the results for the IC50 in assay [2] and in assay [3] were 393 nM and 8.43 nM, respectively.
For the compound `N#Cc1ccc2[nH]cc(CCCN3CCN(c4cccc5sccc45)CC3)c2c1` [Compound of example 108, 3-(3-(4-(benzo[b]thiophen-4-yl)piperazin-1-yl)propyl)-1H-indole-5-carbonitrile], the EC50 in assay [1] worked out at 44.9 nM. In addition, the IC50 stood at 819 nM in assay [2] and 21.7 nM in assay [3].
`CC(=O)n1cc(CCCCN2CCN(c3cccc4sccc34)CC2)c2cc(C#N)ccc21` [Compound of example 110, 1-acetyl-3-(4-(4-(benzo[b]thiophen-4-yl)piperazin-1-yl)butyl)-1H-indole-5-carbonitrile]: in assay [1], the EC50 is 84 nM. Moreover, the results for the IC50 in assay [2] and in assay [3] were 1760 nM and 57.6 nM, respectively.
In the case of `O=C1CCc2cc(CCCCN3CCN(c4cccc5sccc45)CC3)ccc2N1` [Compound of example 111, 6-(4-(4-(benzo[b]thiophen-4-yl)piperazin-1-yl)butyl)-3,4-dihydroquinolin-2(1H)-one], the EC50 in assay [1] was 29.5 nM. Moreover, the IC50 was 400 nM in assay [2] and 23.9 nM in assay [3].
In the case of `O=C1Cc2cc(CCN3CCN(c4cccc5sc(F)cc45)CC3)c(Cl)cc2N1` [Compound of example 113, 6-chloro-5-(2-(4-(2-fluorobenzo[b]thiophen-4-yl)piperazin-1-yl)ethyl)indolin-2-one], the EC50 in assay [1] turned out to be 9.09 nM. Also, the figures for the IC50 in assay [2] and in assay [3] were 716 nM and 61 nM, respectively.
